Assay results from PubChem BioAssay AID330 (DTP/NCI, 2004).
“And” between values parts separate entries of the source, which are not always exact repeats. Equal entries are not always repeated. Toxic doses and inconclusive results are not listed. The calls were made as follows: active = survival T/C of 150% or more; inactive = T/C below 125% in these data.

System: P388 leukemia ip, CD2F1 mice, survival T/C
Assay: NCI In Vivo Anticancer Drug Screen. Data for tumor model P388 Leukemia (intraperitoneal) in CD2F1 (CDF1) mice
Details: endpoint: median survival time, higher = longer survival
Outline: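 Mice carrying the transplanted tumor received test compound or vehicle. Survival was recorded in each group, and the value is the treated-group measurement divided by that of the vehicle-treated control group.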

[1] = dose: 12.5 mg/kg/injection, schedule: Q01DX001 (ip), vehicle: saline
[2] = dose: 25.0 mg/kg/injection, schedule: Q01DX001 (ip), vehicle: saline
[3] = dose: 50.0 mg/kg/injection, schedule: Q01DX001 (ip), vehicle: saline
[4] = dose: 50.0 mg/kg/injection, schedule: Q01DX009 (ip), vehicle: Klucel (hydroxypropylcellulose) (HPC)
[5] = dose: 100.0 mg/kg/injection, schedule: Q01DX009 (ip), vehicle: Klucel (hydroxypropylcellulose) (HPC)
[6] = dose: 200.0 mg/kg/injection, schedule: Q01DX009 (ip), vehicle: Klucel (hydroxypropylcellulose) (HPC)
[7] = dose: 50.0 mg/kg/injection, schedule: Q01DX005 (ip), vehicle: Klucel (hydroxypropylcellulose) (HPC)
[8] = dose: 100.0 mg/kg/injection, schedule: Q01DX005 (ip), vehicle: Klucel (hydroxypropylcellulose) (HPC)
[9] = dose: 100.0 mg/kg/injection, schedule: Q01DX009 (ip), vehicle: saline
[10] = dose: 200.0 mg/kg/injection, schedule: Q01DX009 (ip), vehicle: saline
[11] = dose: 400.0 mg/kg/injection, schedule: Q01DX009 (ip), vehicle: saline
[12] = dose: 100.0 mg/kg/injection, schedule: Q01DX009 (ip), vehicle: saline with Tween-80
[13] = dose: 200.0 mg/kg/injection, schedule: Q01DX009 (ip), vehicle: saline with Tween-80
[14] = dose: 200.0 mg/kg/injection, schedule: Q01DX005 (ip), vehicle: Klucel (hydroxypropylcellulose) (HPC)
[15] = dose: 50.0 mg/kg/injection, schedule: Q01DX009 (ip), vehicle: saline with Tween-80

Measured: T/C

Nc1c(S(=O)(=O)O)cc(Nc2cccc(CO)c2)c2c1C(=O)c1ccccc1C2=O
inactive: [1] 99 % of control | [2] 99 % of control | [3] 98 % of control | dose: 100.0 mg/kg/injection, schedule: Q01DX001 (ip), vehicle: saline 106 % of control

CCCCC(=O)CCCCCCCCC(O)CC(=O)OCC (configuration not stated)
inactive: dose: 100.0 mg/kg/injection, schedule: Q04DX003 (ip), vehicle: Klucel (hydroxypropylcellulose) (HPC) 100 % of control | dose: 200.0 mg/kg/injection, schedule: Q04DX003 (ip), vehicle: Klucel (hydroxypropylcellulose) (HPC) 103 % of control | dose: 400.0 mg/kg/injection, schedule: Q04DX003 (ip), vehicle: Klucel (hydroxypropylcellulose) (HPC) 102 % of control

C=C1Sc2ccccc2N1C
inactive: dose: 6.25 mg/kg/injection, schedule: Q01DX009 (ip), vehicle: Klucel (hydroxypropylcellulose) (HPC) 111 % of control | dose: 12.5 mg/kg/injection, schedule: Q01DX009 (ip), vehicle: Klucel (hydroxypropylcellulose) (HPC) 107 % of control and 114 % of control | dose: 25.0 mg/kg/injection, schedule: Q01DX009 (ip), vehicle: Klucel (hydroxypropylcellulose) (HPC) 123 % of control

NC(Cc1ccccc1)C(=O)Nc1ccncc1 (configuration not stated)
inactive: [1] 105 % of control | [2] 106 % of control | [3] 103 % of control

Cc1nc2sccn2c1C#N
inactive: dose: 12.5 mg/kg/injection, schedule: Q01DX001 (ip), vehicle: Klucel (hydroxypropylcellulose) (HPC) 117 % of control | dose: 25.0 mg/kg/injection, schedule: Q01DX001 (ip), vehicle: Klucel (hydroxypropylcellulose) (HPC) 102 % of control | dose: 50.0 mg/kg/injection, schedule: Q01DX001 (ip), vehicle: Klucel (hydroxypropylcellulose) (HPC) 102 % of control

COc1cccc2c1C(=O)c1c(O)c3c(c(O)c1C2=O)C[C@@](O)(C(C)=O)C[C@@H]3OC1CC(N)C(OC2CC(N)C(OC)C(C)O2)C(C)O1 (some centres not stated)
inactive: dose: 3.13 mg/kg/injection, schedule: Q04DX003 (ip), vehicle: water 110 % of control and 115 % of control | dose: 6.25 mg/kg/injection, schedule: Q04DX003 (ip), vehicle: water 119 % of control and 123 % of control | dose: 50.0 mg/kg/injection, schedule: Q04DX003 (ip), vehicle: water 112 % of control

NC(N)=NCC(NS(=O)(=O)c1ccccc1)C(=O)O (configuration not stated)
inactive: [4] 111 % of control | [5] 111 % of control | [6] 104 % of control

O=C(O)CSc1ccc([N+](=O)[O-])cc1[N+](=O)[O-]
inactive: dose: 60.0 mg/kg/injection, schedule: Q01DX005 (ip), vehicle: Klucel (hydroxypropylcellulose) (HPC) 107 % of control | dose: 60.0 mg/kg/injection, schedule: Q01DX005 (ip), vehicle: saline with Tween-80 96 % of control | dose: 120.0 mg/kg/injection, schedule: Q01DX005 (ip), vehicle: Klucel (hydroxypropylcellulose) (HPC) 103 % of control | dose: 120.0 mg/kg/injection, schedule: Q01DX005 (ip), vehicle: saline with Tween-80 86 % of control | dose: 240.0 mg/kg/injection, schedule: Q01DX005 (ip), vehicle: Klucel (hydroxypropylcellulose) (HPC) 109 % of control | dose: 240.0 mg/kg/injection, schedule: Q01DX005 (ip), vehicle: saline with Tween-80 95 % of control

Cc1c(N=Nc2cccc(Cl)c2)c(-c2ccccc2)nn1C(N)=S
inactive: dose: 100.0 mg/kg/injection, schedule: Q01DX001 (ip), vehicle: saline with Tween-80 89 % of control | dose: 200.0 mg/kg/injection, schedule: Q01DX001 (ip), vehicle: saline with Tween-80 92 % of control | dose: 400.0 mg/kg/injection, schedule: Q01DX001 (ip), vehicle: saline with Tween-80 90 % of control

NC(=O)N1C(=O)C=CC1=O
inactive: [7] 92 % of control | [8] 104 % of control

N=c1c2ncn(C3OC(COP(=O)(O)O)C(O)C3O)c2ncn1O (configuration not stated)
inactive: dose: 50.0 mg/kg/injection, schedule: Q01DX009 (ip), vehicle: saline 97 % of control | [9] 97 % of control | [10] 95 % of control | [11] 97 % of control

Nc1ccc(CCCCc2ccc(Cl)c(S(=O)(=O)F)c2)c(Cl)c1
inactive: [12] 91 % of control | [13] 91 % of control

CSc1cccc(NC(=O)Oc2ccc([N+](=O)[O-])cc2Cl)c1
inactive: dose: 6.25 mg/kg/injection, schedule: Q01DX009 (ip), vehicle: DMSO 100 % of control | dose: 12.5 mg/kg/injection, schedule: Q01DX009 (ip), vehicle: DMSO 93 % of control

CCN(CC)CCCC(C)Nc1c2ccc(Cl)cc2nc2cc(N=Nc3cccc4ccccc34)c(OC)cc12 (configuration not stated)
inactive: dose: 25.0 mg/kg/injection, schedule: Q04DX003 (ip), vehicle: saline with Tween-80 92 % of control | dose: 50.0 mg/kg/injection, schedule: Q04DX003 (ip), vehicle: saline with Tween-80 92 % of control | dose: 100.0 mg/kg/injection, schedule: Q04DX003 (ip), vehicle: saline with Tween-80 118 % of control

NC(=O)CCSC1=CC(=O)c2ccccc2C1=O
inactive: dose: 3.13 mg/kg/injection, schedule: Q04DX003 (ip), vehicle: saline with Tween-80 103 % of control | dose: 6.25 mg/kg/injection, schedule: Q04DX003 (ip), vehicle: saline with Tween-80 110 % of control | dose: 12.5 mg/kg/injection, schedule: Q04DX003 (ip), vehicle: saline with Tween-80 103 % of control and 110 % of control

O=C1c2ccccc2C(=O)N1Cc1ccc(Cl)cc1[N+](=O)[O-]
inactive: [7] 103 % of control | [8] 109 % of control | [14] 98 % of control

CCOC(=O)NC(Cc1cc(OC)c(OC)cc1Br)c1ccc(OC)c(OC)c1 (configuration not stated)
inactive: dose: 50.0 mg/kg/injection, schedule: Q01DX005 (ip), vehicle: saline with Tween-80 89 % of control | dose: 100.0 mg/kg/injection, schedule: Q01DX005 (ip), vehicle: saline with Tween-80 89 % of control | dose: 200.0 mg/kg/injection, schedule: Q01DX005 (ip), vehicle: saline with Tween-80 100 % of control

CCCCCCC[CH2][Sn]([F])([F])[CH2]CCCCCCC
inactive: dose: 12.5 mg/kg/injection, schedule: Q04DX003 (ip), vehicle: saline 102 % of control | dose: 25.0 mg/kg/injection, schedule: Q04DX003 (ip), vehicle: saline 106 % of control and 108 % of control | dose: 50.0 mg/kg/injection, schedule: Q04DX003 (ip), vehicle: saline 106 % of control and 116 % of control | dose: 100.0 mg/kg/injection, schedule: Q04DX003 (ip), vehicle: saline 101 % of control and 109 % of control and 121 % of control

COc1cc(OC)c(-c2cc(C(=O)O)c3cc4ccccc4cc3n2)c(OC)c1
inactive: [4] 89 % of control | [5] 99 % of control | [6] 97 % of control

CC(O)CC1(c2ccccc2)C(=O)NC(=O)NC1=O (configuration not stated)
inactive: [15] 98 % of control | [12] 98 % of control | [13] 95 % of control

CC(C)[C@](O)(C(=O)OCC1=CCN2CC[C@@H](O)[C@@H]12)[C@H](C)O
inactive: dose: 25.0 mg/kg/injection, schedule: Q01DX009 (ip), vehicle: water 105 % of control | dose: 50.0 mg/kg/injection, schedule: Q01DX009 (ip), vehicle: water 100 % of control and 104 % of control | dose: 100.0 mg/kg/injection, schedule: Q01DX009 (ip), vehicle: distilled water + Tween-80 103 % of control | [9] 97 % of control | dose: 100.0 mg/kg/injection, schedule: Q01DX009 (ip), vehicle: water 105 % of control and 107 % of control | dose: 200.0 mg/kg/injection, schedule: Q01DX009 (ip), vehicle: distilled water + Tween-80 112 % of control | [10] 114 % of control | dose: 200.0 mg/kg/injection, schedule: Q01DX009 (ip), vehicle: water 107 % of control and 113 % of control | dose: 400.0 mg/kg/injection, schedule: Q01DX009 (ip), vehicle: distilled water + Tween-80 113 % of control | [11] 112 % of control | dose: 800.0 mg/kg/injection, schedule: Q01DX009 (ip), vehicle: distilled water + Tween-80 103 % of control

COc1ccc(-c2c3ccc(=O)c(OC)cc3cn2C)cc1OC
inactive: [7] 102 % of control | [8] 94 % of control | [14] 94 % of control

CN=C(c1ccc(NC(=O)c2cccc(C(=O)Nc3ccc(C(=NC)N(C)C4CCCCC4)cc3)c2)cc1)N(C)C1CCCCC1
inactive: dose: 1.56 mg/kg/injection, schedule: Q01DX005 (ip), vehicle: Klucel (hydroxypropylcellulose) (HPC) 104 % of control | dose: 3.12 mg/kg/injection, schedule: Q01DX005 (ip), vehicle: Klucel (hydroxypropylcellulose) (HPC) 102 % of control

O=C1C2CCCCC2C1(Cl)Cl (configuration not stated)
inactive: dose: 25.0 mg/kg/injection, schedule: Q01DX009 (ip), vehicle: saline with Tween-80 103 % of control | [15] 99 % of control | [12] 118 % of control
